In patent US20230026696A1, “TRPV4 RECEPTOR LIGANDS” (UNIVERSITY OF UTAH RESEARCH FOUNDATION, priority 2019, published 2023) one finds IC50 data, which are given here for 24 molecules.

Where a name gives a salt, the structure may show the parent alone.

This assay addresses T1, human TRPV4 (Homo sapiens, UniProt Q9HBA0).
T1 construct: expressed in transfected cells
As to the kind of experiment: Fluorometric cell-based Ca2+ flux assay, HEK-293 cells stably overexpressing human TRPV4. As to conditions: HEK-293 stably overexpressing human TRPV4; agonist GSK1016790A 30 nM. Here is the method: Fluorometric cell-based Ca^2+ flux assays were performed to assess TRPV4 antagonist activity and determine potency (IC50 values) in human embryonic kidney-293 cells (HEK-293) that stably overexpress human TRPV4. The assays were performed according to methods described in: Deering-Rice, C. E., Johansen, M. E., Roberts, J. K., Thomas, K. C., Romero, E. G., Lee, J., Yost, G. S., Veranth, J. M., and Reilly, C. A. (2012), Mol. Pharmacol. 81(3), 411-419; Shapiro, D., Deering-Rice, C. E., Romero, E. G., Hughen, R. W., Light, A. R., Veranth, J. M., and Reilly, C. A. (2013), Chem Res. Toxicol., 26, 750-758; and Deering-Rice, C. E., Mitchell, V. K., Romero, E. G., Abdel Aziz, M. H., and Reilly, C. A. (2014), Pharmacol. Res. & Perspectives. 2(5), 1-10.
The HEK-293 cells stably overexpressing human TRPV4 were grown to confluence in 2% (w/v) gelatin-coated 96-well plates in DMEM:F12 media supplemented with 5% fetal bovine serum, 1× penicillin/streptomycin (Invitrogen) and Geneticin (300 μg/mL).
The HEK-293 cells were prepared for assay by replacing the growth media with a 1:1 solution of LHC-9 and Fluo 4-Direct (Invitrogen) reagent containing Fluo 4-AM, pluronic F-127, probenecid, and a proprietary quencher dye. The cells were then incubated at 37° C. for 1 h in a cell culture incubator. The cells were subsequently washed by replacing the loading solution with LHC-9 containing 1 mM water-soluble probenecid (Invitrogen), 750 μM Trypan Red (ATT Bioquest), and a test compound (at various concentrations). The cells were incubated for an additional 30 minutes at 37° C. to allow for Fluo 4-AM cleavage and activation, as well as equilibration to both the test compounds and Fluo 4.
An agonist treatment solution (90 nM GSK1016790A, a potent activator of TRPV4) was prepared in LHC9 at 3× concentration and 25 μL was added to 50 μL of media on the cells in 96 well plates, providing a final concentration of 30 nM. Changes in cellular fluorescence were monitored with a BMG Labtech NOVOStar fluorescence plate reader for 1 minute at 37° C. Data were quantified as the maximum rate of change in fluorescence intensity (max ΔF/s), corrected for media only treatment (negative control), and represented as the percentage of response relative to the no antagonist control. A minimum of three replicates were used for each treatment condition, with a minimum of 8 concentrations to derive the IC50 values reported for each antagonist. The IC50 values for each antagonist, which are shown in Table 4 below, were calculated according to methods described in the assays were performed according to methods described in: Deering-Rice, C. E., Johansen, M. E., Roberts, J. K., Thomas, K. C., Romero, E. G., Lee, J., Yost, G. S., Veranth, J. M., and Reilly, C. A. (2012), Mol. Pharmacol. 81(3), 411-419; Shapiro, D., Deering-Rice, C. E., Romero, E. G., Hughen, R. W., Light, A. R., Veranth, J. M., and Reilly, C. A. (2013), Chem Res. Toxicol., 26, 750-758; and Deering-Rice, C. E., Mitchell, V. K., Romero, E. G., Abdel Aziz, M. H., and Reilly, C. A. (2014), Pharmacol. Res. & Perspectives. 2(5), 1-10.

T1 sequence (Q9HBA0 whole entry): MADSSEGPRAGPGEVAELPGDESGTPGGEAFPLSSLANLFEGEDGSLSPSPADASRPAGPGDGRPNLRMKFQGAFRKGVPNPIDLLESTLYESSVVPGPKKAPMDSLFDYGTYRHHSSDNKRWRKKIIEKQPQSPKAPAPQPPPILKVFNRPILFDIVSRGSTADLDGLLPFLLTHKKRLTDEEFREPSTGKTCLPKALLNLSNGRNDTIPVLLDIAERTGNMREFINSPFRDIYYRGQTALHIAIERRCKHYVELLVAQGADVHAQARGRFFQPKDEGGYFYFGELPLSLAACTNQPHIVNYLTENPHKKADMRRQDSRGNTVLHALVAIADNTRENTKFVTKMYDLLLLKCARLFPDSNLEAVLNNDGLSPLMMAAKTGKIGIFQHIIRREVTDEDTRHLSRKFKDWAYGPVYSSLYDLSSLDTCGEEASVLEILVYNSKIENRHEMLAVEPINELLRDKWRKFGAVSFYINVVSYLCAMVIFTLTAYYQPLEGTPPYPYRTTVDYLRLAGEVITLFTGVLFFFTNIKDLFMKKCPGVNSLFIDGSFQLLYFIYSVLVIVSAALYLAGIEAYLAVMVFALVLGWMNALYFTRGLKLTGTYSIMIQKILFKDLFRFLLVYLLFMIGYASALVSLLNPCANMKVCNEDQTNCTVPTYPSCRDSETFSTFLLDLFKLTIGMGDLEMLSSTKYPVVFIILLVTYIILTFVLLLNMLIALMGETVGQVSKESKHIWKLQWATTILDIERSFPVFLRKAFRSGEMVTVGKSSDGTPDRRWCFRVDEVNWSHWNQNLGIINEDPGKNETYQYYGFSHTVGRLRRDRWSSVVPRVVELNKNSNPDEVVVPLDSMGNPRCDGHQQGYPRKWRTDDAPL

For the molecule `CC1(COc2ccc(C#N)cc2)CN(S(=O)(=O)c2ccc(Cl)cc2Cl)C1` [Compound 1, 4-((1-((2,4-Dichlorophenyl)sulfonyl)-3-methylazetidin-3-yl)methoxy)benzonitrile], the IC50 came out at 510 nM.

Consider `N#Cc1ccc(OCC2(C(=O)O)CN(S(=O)(=O)c3ccc(Cl)cc3Cl)C2)cc1` [Compound 2, 3-((4-Cyanophenoxy)methyl)-1-((2,4-dichlorophenyl)sulfonyl)azetidine-3-carboxylic acid], for which the IC50 is at least 50000 nM. In the case of `N#Cc1ccc(OCC2(CO)CN(S(=O)(=O)c3ccc(Cl)cc3Cl)C2)cc1` [Compound 3, 4-((1-((2,4-Dichlorophenyl)sulfonyl)-3-(hydroxymethyl)azetidin-3-yl)methoxy)benzonitrile], the IC50 worked out at 270 nM.

`CNC(=O)C1(COc2ccc(C#N)cc2)CN(S(=O)(=O)c2ccc(Cl)cc2Cl)C1` [Compound 4, 3-((4-Cyanophenoxy)methyl)-1-((2,4-dichlorophenyl)sulfonyl)-N-methylazetidine-3-carboxamide] yielded an IC50 of 4600 nM.

In turn, `CNCCN(C)C(=O)C1(COc2ccc(C#N)cc2)CN(S(=O)(=O)c2ccc(Cl)cc2Cl)C1` [Compound 5, 3-((4-Cyanophenoxy)methyl)-1-((2,4-dichlorophenyl)sulfonyl)-N-methyl-N-(2-(methylamino)ethyl)azetidine-3-carboxamide] displayed an IC50 of 2250 nM. This IC50 is about 2-fold lower than that of the molecule before. The result for `N#Cc1ccc(OCC2(C(=O)NC3CCOCC3)CN(S(=O)(=O)c3ccc(Cl)cc3Cl)C2)cc1` [Compound 6, 3-((4-cyanophenoxy)methyl)-1-((2,4-dichlorophenyl)sulfonyl)-N-(tetrahydro-2H-pyran-4-yl)azetidine-3-carboxamide] reads 12900 nM.

For the molecule `CCOC(=O)C1(COc2ccc(C#N)c(F)c2)CN(S(=O)(=O)c2ccc(Cl)cc2Cl)C1` [Compound 7, Ethyl 3-((4-cyano-3-fluorophenoxy)methyl)-1-((2,4-dichlorophenyl)sulfonyl)azetidine-3-carboxylate], the half-maximal inhibitory concentration (IC50) is 5000 nM. Against the preceding molecule, the IC50 is about 2.6-fold lower. The result for `N#Cc1ccc(OCC2(C(N)=O)CN(S(=O)(=O)c3ccc(Cl)cc3Cl)C2)cc1F` [Compound 9, 3-((4-Cyano-3-fluorophenoxy)methyl)-1-((2,4-dichlorophenyl)sulfonyl)azetidine-3-carboxamide] reads 1090 nM; that for `NCc1ccc(OCC2(CO)CN(S(=O)(=O)c3ccc(Cl)cc3Cl)C2)cc1F` [Compound 10, (3-((4-(Aminomethyl)-3-fluorophenoxy)methyl)-1-((2,4-dichlorophenyl)sulfonyl)azetidin-3-yl)methanol], 10000 nM.

For `CC(=O)OCC1(COc2ccc(C#N)c(F)c2)CN(S(=O)(=O)c2ccc(Cl)cc2Cl)C1` [Compound 12, (3-((4-Cyano-3-fluorophenoxy)methyl)-1-((2,4-dichlorophenyl)sulfonyl)azetidin-3-yl)methyl acetate], the IC50 came out at 303 nM. The result for `COCC1(COc2ccc(C#N)c(F)c2)CN(S(=O)(=O)c2ccc(Cl)cc2Cl)C1` [Compound 13, 4-((1-((2,4-Dichlorophenyl)sulfonyl)-3-(methoxymethyl)azetidin-3-yl)methoxy)-fluorobenzonitrile] reads 62 nM; that for `N#Cc1ccc(OCC2(COP(=O)(O)O)CN(S(=O)(=O)c3ccc(Cl)cc3Cl)C2)cc1F` [Compound 14, Sodium (3-((4-cyano-3-fluorophenoxy)methyl)-1-((2,4-dichlorophenyl)sulfonyl)azetidin-3-yl)methyl phosphate], 70 nM; that for `N#Cc1ccc(OCC2(COS(=O)(=O)CCN)CN(S(=O)(=O)c3ccc(Cl)cc3Cl)C2)cc1F` [Compound 15, (3-((4-Cyano-3-fluorophenoxy)methyl)-1-((2,4-dichlorophenyl)sulfonyl)azetidin-3-yl)methyl 2-aminoethane-1-sulfonate trifluoroacetate salt], 21 nM.

Turning to `N#Cc1ccc(OCC2(CNC3CCOCC3)CN(S(=O)(=O)c3ccc(Cl)cc3Cl)C2)cc1F` [Compound 18, 4-((1-((2,4-Dichlorophenyl)sulfonyl)-3-(((tetrahydro-2H-pyran-4-yl)amino)methyl)azetidin-3-yl)methoxy)-2-fluorobenzonitrile hydrochloride], the concentration for half-maximal inhibition (IC50) is 0.7 nM. The result for `N#Cc1ccc(OCC2(CNCCCO)CN(S(=O)(=O)c3ccc(Cl)cc3Cl)C2)cc1F` [Compound 19, 4-((1-((2,4-Dichlorophenyl)sulfonyl)-3-(((3-hydroxypropyl)amino)methyl)azetidin-3-yl)methoxy)-2-fluorobenzonitrile hydrochloride] reads 0.5 nM; that for `N#Cc1ccc(OCC2(CNCC(N)=O)CN(S(=O)(=O)c3ccc(Cl)cc3Cl)C2)cc1F` [Compound 20, 2-(((3-((4-Cyano-3-fluorophenoxy)methyl)-1-((2,4-dichlorophenyl)sulfonyl)azetidin-3-yl)methyl)amino)acetamide hydrochloride], 153 nM. The result for `COCCNCC1(COc2ccc(C#N)c(F)c2)CN(S(=O)(=O)c2ccc(Cl)cc2Cl)C1` [Compound 21, 4-((1-((2,4-dichlorophenyl)sulfonyl)-3-(((2-methoxyethyl)amino)methyl)azetidin-3-yl)methoxy)-2-fluorobenzonitrile hydrochloride] reads 18.7 nM; that for `N#Cc1ccc(OCC2(CNCc3nccs3)CN(S(=O)(=O)c3ccc(Cl)cc3Cl)C2)cc1F` [Compound 22, 4-((1-((2,4-dichlorophenyl)sulfonyl)-3-(((thiazol-2-ylmethyl)amino)methyl)azetidin-3-yl)methoxy)-2-fluorobenzonitrile hydrochloride], 117 nM. The result for `N#Cc1ccc(OCC2(CNCC3CCOC3)CN(S(=O)(=O)c3ccc(Cl)cc3Cl)C2)cc1F` (stereo not drawn) [Compound 23, 4-((1-((2,4-Dichlorophenyl)sulfonyl)-3-((((tetrahydrofuran-3-yl)methyl)amino)methyl)azetidin-3-yl)methoxy)-2-fluorobenzonitrile hydrochloride] reads 4.1 nM; that for `CC(O)CNCC1(COc2ccc(C#N)c(F)c2)CN(S(=O)(=O)c2ccc(Cl)cc2Cl)C1` (stereo not drawn) [Compound 24, 4-((1-((2,4-Dichlorophenyl)sulfonyl)-3-(((2-hydroxypropyl)amino)methyl)azetidin-3-yl)methoxy)-2-fluorobenzonitrile hydrochloride], 0.9 nM. `CCNCC1(COc2ccc(C#N)c(F)c2)CN(S(=O)(=O)c2ccc(Cl)cc2Cl)C1` [Compound 25, 4-((1-((2,4-Dichlorophenyl)sulfonyl)-3-((ethylamino)methyl)azetidin-3-yl)methoxy)-2-fluorobenzonitrile hydrochloride] gave an IC50 of 1 nM. The IC50 values of the last two molecules are within 1.5-fold of each other. On to `N#Cc1ccc(OCC2(CNC3COC3)CN(S(=O)(=O)c3ccc(Cl)cc3Cl)C2)cc1F` [Compound 26, 4-((1-((2,4-Dichlorophenyl)sulfonyl)-3-((oxetan-3-ylamino)methyl)azetidin-3-yl)methoxy)-2-fluorobenzonitrile], for which the IC50 stood at 8 nM. The result for `N#Cc1ccc(OCC2(CNCC3COC3)CN(S(=O)(=O)c3ccc(Cl)cc3Cl)C2)cc1F` [Compound 27, 4-((1-((2,4-Dichlorophenyl)sulfonyl)-3-(((oxetan-3-ylmethyl)amino)methyl)azetidin-3-yl)methoxy)-2-fluorobenzonitrile] reads 1 nM; that for `N#Cc1ccc(OCC2(CNC[C@@H]3CCCO3)CN(S(=O)(=O)c3ccc(Cl)cc3Cl)C2)cc1F` [Compound 28, (S)-4-((1-((2,4-dichlorophenyl)sulfonyl)-3-((((tetrahydrofuran-2-yl)methyl)amino)methyl)azetidin-3-yl)methoxy)-2-fluorobenzonitrile hydrochloride], 8.7 nM.

As usually defined, the IC50 is the point on the concentration scale where inhibition reaches its midpoint. High values mean lower potency, low ones higher potency.
